Results published in publication PMC6539495, “Anti-Cancer Activity of Novel Dihydrotestosterone-Derived Ring A-Condensed Pyrazoles on Androgen Non-Responsive Prostate Cancer Cell Lines” (International Journal of Molecular Sciences, 2019).
Where two headings read alike, the source gives them in different places.

Legend:
MRC-5 cells [1] = experiment: MTT cell viability assay on non-cancerous MRC-5 fibroblasts; format: cell-based; conditions: for Mean values (%) of primary growth inhibitory screen (viability in %), MRC-5 / IC50: 72 hours, MTT; for IC50: ± SD
Procedure: (§1) HeLa, MCF-7 and MDA-MB-231 cells were obtained from Sigma-Aldrich and maintained as reported previously. MRC-5, PC-3, DU 145 cells were purchased from American Type Culture Collection (ATCC, Manassas, VA, USA). PC-3 and DU 145 were maintained in RPMI medium (Sigma-Aldrich) whereas MRC-5 cells were maintained in DMEM medium (Sigma-Aldrich). All media were complemented with 10% Fetal bovine serum (FBS, Sigma-Aldrich) 2 mM L-glutamine, 0.01% streptomycin and 0.005% ampicillin (Sigma-Aldrich). Cells were cultured under standard conditions in a 37 °C incubator containing 5% CO2 in 95% humidity.
(§2) Each test compound was dissolved in cell culture grade DMSO (Molar Chemicals, Halásztelek, Hungary) in a final concentration of […]. Antiproliferative action of the synthesized steroids was investigated by MTT assay. An amount of 5000 cells/well were seeded into 96 well plates. Twenty-four hours post seeding, all cell lines were treated with each compound in 10 and 30 μM concentrations for 72 hours. […] After 72 hours, cells were washed with PBS and incubated with culture medium containing 0.5 mg/mL MTT (3-(4, 5-dimethylthiazolyl-2)-2,5-diphenyltetrazolium bromide) reagent (SERVA, GmbH, Heidelberg, Germany) for an hour at 37 °C. Formazan crystals were solubilized in DMSO and extinction was measured at 570 nm using a Synergy HTX plate reader (BioTech-Hungary, Budapest, Hungary). MTT assays were performed at least three times using four independent biological replicates. Data were normalized to solvent controls and the graphical representation of the obtained data as well as the calculation of IC50 values were carried out by GraphPad Prism 7 software (GraphPad Software; San Diego, CA, USA).

PC-3 cells [2] = experiment: MTT cell viability assay on PC-3 prostate cancer cells; format: cell-based, human; conditions: for Mean values (%) of primary growth inhibitory screen (viability in %), PC-3 / IC50: 72 hours, MTT; for antiproliferative potency against PC-3 prostate cancer cells compared to MRC-5 non-cancerous fibroblasts: primary screen; for IC50: ± SD
Procedure: as §1, §2

MCF-7 cells = experiment: MTT cell viability assay on MCF-7 breast cancer cells; format: cell-based, human; conditions: for IC50: ± SD
Procedure: as §1, §2

HeLa cells = experiment: MTT cell viability assay on HeLa cervical cancer cells; format: cell-based, human; conditions: 72 hours; for IC50: ± SD
Procedure: as §1, §2

MDA-MB-231 cells = experiment: MTT cell viability assay on MDA-MB-231 breast cancer cells; format: cell-based, human; conditions: for IC50: ± SD
Procedure: as §1, §2

DU 145 cells [3] = experiment: MTT cell viability assay on DU 145 prostate cancer cells; format: cell-based, human; conditions: for IC50: ± SD
Procedure: as §1, §2

PC-3 cells [4] = experiment: Annexin V/PI apoptosis detection assay (flow cytometry); format: cell-based, human; conditions: for percentage of annexin V-positive cells (Q2 + Q3): PC-3, 5 µM, 48-hour treatment
Procedure: PC-3 cells were seeded at 2 × 10^6 cells/well density in 6-well plates. On the following day cells were treated with 5 µM of either compound 4e or 4j or with 200 µM of cisplatin (Accord Healthcare Ltd., Middlesex, UK). After 48-hour treatment, cells were collected and a Dead Cell Apoptosis Kit containing AnnexinV-FITC and propidium iodide (Life Technologies-Hungary, Budapest, Hungary) was used according to the manufacturer’s recommendation. Fluorescence intensities of at least 10,000 cells/sample were measured by FACSCalibur™ (BD Biosciences, Franklin Lakes, CA, USA) and data were analyzed by FlowJo V10 software (BD Biosciences, Franklin Lakes, NJ, USA). Experiments were repeated three times using triplicates.

Bax mRNA in PC-3 cells = experiment: RT-qPCR of Bax mRNA; format: cell-based, human; conditions: PC-3, 48 h; 4e, 4j 5 µM; cisplatin 200 µM; GAPDH reference
Procedure: (§3) PC-3 cells were seeded at 2 × 10^6 cells/well density in 6 well plates. On the following day cells were treated with 5 µM of either compound 4e or 4j or with 200 µM of cisplatin. Cells were collected 48-hours post-treatment and total cellular RNA was isolated using RNeasy® Mini Kit (QIAGEN, Hilden, Germany) according to the manufacturer’s recommendation. RNA (2 µg) was reverse transcribed (TaqMan® Reverse Transcription kit, Applied Biosystems, Foster City, CA, USA) in 50 µL total volume. PCR reactions were performed on PicoReal™ Real-time PCR (Thermo Scientific, Walthan, MA, USA) using SYBRGreen qPCR Master Mix (Thermo Scientific) with an input of 1 µL cDNA. Each primer (Table 3) was used at 200 nM concentration. Relative transcript levels were determined by the ΔΔCt analysis using GAPDH as reference gene. Experiments were repeated three times with three biological replicates.

[5] = tested on: caspase 3 mRNA in PC-3 cells; experiment: RT-qPCR of caspase 3 mRNA; format: cell-based, human; conditions: PC-3, 48 h; 4e, 4j 5 µM; cisplatin 200 µM; GAPDH reference
Procedure: as §3

[6] = Solubility in DMSO for pharmacological studies; format: physicochemical; conditions: final concentration of 5 mM
Procedure: To perform pharmacological studies, the synthesized DHT derivatives were dissolved in DMSO (dimethyl sulfoxide) in a final concentration of 5 mM. One compound (5h) was non-soluble in the applied solvent, thus was excluded from the pharmacological evaluations. […] For this, PC-3 and DU 145 prostate cancer cells, MCF-7 and MDA-MB-231 breast cancer cells, HeLa cervical cancer cells and non-cancerous MRC-5 fibroblasts were used. […] On the heat map representing viability results following treatments with DHT derivatives at 30 µM concentration a remarkable structure–function relationship can be recognized (Figure 3).

DU 145 cells [7] = tested on: DU 145 cells; parameters: method as in PMID 28595942; conditions: assessed previously; cited from earlier work
PC-3 cells [8] = tested on: PC-3 cells; parameters: method as in PMID 28595942; conditions: assessed previously; cited from earlier work
MRC-5 cells [9] = tested on: MRC-5 cells; parameters: method as in PMID 28595942; conditions: assessed previously; cited from earlier work

Compound | melting point [°C] | Mean values (%) of primary growth inhibitory screen (viability in %), MRC-5 (MRC-5 cells [1]; 10 µM) [%] | Mean values (%) of primary growth inhibitory screen (viability in %), MRC-5 (MRC-5 cells [1]; 30 µM) [%] | Mean values (%) of primary growth inhibitory screen (viability in %), PC-3 (PC-3 cells [2]; 10 µM) [%] | antiproliferative potency against PC-3 prostate cancer cells compared to MRC-5 non-cancerous fibroblasts (PC-3 cells [2]; 10 µM) | Mean values (%) of primary growth inhibitory screen (viability in %), PC-3 (PC-3 cells [2]; 30 µM) [%] | Mean values (%) of primary growth inhibitory screen (viability in %), MCF-7 (MCF-7 cells; 10 µM, 72 hours) [%] | Mean values (%) of primary growth inhibitory screen (viability in %), MCF-7 (MCF-7 cells; 30 µM, 72 hours) [%] | Mean values (%) of primary growth inhibitory screen (viability in %), HeLa (HeLa cells; 10 µM) [%] | Mean values (%) of primary growth inhibitory screen (viability in %), HeLa (HeLa cells; 30 µM) [%] | Mean values (%) of primary growth inhibitory screen (viability in %), MDA-MB-231 (MDA-MB-231 cells; 10 µM, 72 hours) [%] | Mean values (%) of primary growth inhibitory screen (viability in %), MDA-MB-231 (MDA-MB-231 cells; 30 µM, 72 hours) [%] | Mean values (%) of primary growth inhibitory screen (viability in %), DU 145 (DU 145 cells [3]; 10 µM, 72 hours) [%] | Mean values (%) of primary growth inhibitory screen (viability in %), DU 145 (DU 145 cells [3]; 30 µM, 72 hours) [%] | percentage of annexin V-positive cells (Q2 + Q3) (PC-3 cells [4]) [%] | IC50 (MRC-5 cells [1]) [µM] | Bax mRNA expression level compared to untreated control (Bax mRNA in PC-3 cells) | IC50 (PC-3 cells [2]) [µM] | IC50 (MCF-7 cells; 72 hours) [µM] | caspase 3 mRNA expression level compared to untreated control [5] | further results
Cc1c2c(nn1-c1ccccc1)CC1CCC3C4CCC(O)C4(C)CCC3C1(C)C2 (stereo not drawn) [4a, 17β-Hydroxy-1′-phenyl-5′-methylpyrazolo[3′,4′:3,2]-5α-androstane] | 241 to 245 | 68.3 | 1.2 | 36.8 | significantly higher | 3.2 | 57.1 | 5.5 | 49.6 | 46.7 | 75.0 | 32.1 | 67.3 | 1.5 | – | – | – | – | – | – | IC50 (MRC-5 cells [1]; Homo sapiens, MRC5): 23.7 ± 2.3 µM; IC50 (PC-3 cells [2]; Homo sapiens, PC-3): 5.6 ± 1.2 µM; IC50 (MCF-7 cells; Homo sapiens, MCF7, 72 hours): 12.9 ± 0.1 µM; IC50 (HeLa cells; Homo sapiens, HeLa): 16.9 ± 3.7 µM; IC50 (MDA-MB-231 cells; Homo sapiens, MDA-MB-231, 72 hours): 15.3 ± 3.4 µM; IC50 (DU 145 cells [3]; Homo sapiens, DU-145, 72 hours): 9.2 ± 1.2 µM
COc1ccc(-n2nc3c(c2C)C[C@@]2(C)[C@@H](CC[C@@H]4[C@@H]2CC[C@]2(C)[C@@H](O)CC[C@@H]42)C3)cc1 [4e, 17β-Hydroxy-1′-(4″-methoxyphenyl)-5′-methylpyrazolo[3′,4′:3,2]-5α-androstane] | – | 71.2 | 28.8 | 28.4 | – | 10.8 | 20.9 | 14.0 | 31.7 | 15.1 | 35.2 | 13.6 | 23.3 | 5.5 | 33.96 | 8.6 ± 1.3 | significantly increased | 4.2 ± 1.1 | 5.5 ± 0.6 | significantly increased | specificity in cancer cell toxicity (cancer cell lines vs MRC-5) (MRC-5 cells [1]; primary screen, manifested already at 10 µM): utmost specificity; IC50 (HeLa cells): 8.5 ± 0.6 µM; IC50 (MDA-MB-231 cells; 72 hours): 6.6 ± 0.9 µM; IC50 (DU 145 cells [3]; 72 hours): 3.6 ± 1.2 µM
Cc1c2c(nn1-c1ccc([N+](=O)[O-])cc1)CC1CCC3C4CCC(O)C4(C)CCC3C1(C)C2 (stereo not drawn) [4j, 17β-Hydroxy-1′-(4″-nitrophenyl)-5′-methylpyrazolo[3′,4′:3,2]-5α-androstane] | – | 99.1 | 99.8 | 38.2 | significantly higher | 41.6 | 55.8 | 49.6 | 60.5 | 64.6 | 83.8 | 80.6 | 82.8 | 60.4 | 37.89 | > 30 | significantly increased | 5.6 ± 1.1 | 18.2 ± 3.9 | significantly increased | antiproliferative potency against PC-3 prostate cancer cells compared to MRC-5 non-cancerous fibroblasts (PC-3 cells [2]; 30 µM): significantly higher; IC50 (HeLa cells): > 30 µM; IC50 (MDA-MB-231 cells; 72 hours): > 30 µM; IC50 (DU 145 cells [3]; 72 hours): 19.7 ± 1 µM
Cc1c2c(nn1-c1ccccc1)C[C@@H]1CC[C@@H]3[C@H](CC[C@]4(C)C(=O)CC[C@@H]34)[C@@]1(C)C2 [5a, 1′-Phenyl-5′-methylpyrazolo[3′,4′:3,2]-5α-androst-17-one] | 247 to 250 | 78.0 | 3.9 | 47.7 | – | 7.6 | 73.3 | 7.5 | 70.5 | 26.2 | 85.0 | 15.2 | 80.1 | 4.0 | – | – | – | – | – | – | –
Cc1c2c(nn1-c1ccc(Br)cc1)CC1CCC3C4CCC(=O)C4(C)CCC3C1(C)C2 (stereo not drawn) [5h, 1′-(4″-Bromophenyl)-5′-methylpyrazolo[3′,4′:3,2]-5α-androst-17-one] | – | – | – | – | – | – | – | – | – | – | – | – | – | – | – | – | – | – | – | – | solubility in the applied solvent (DMSO) [6]: non-soluble
N.N.[Cl][Pt][Cl] [cisplatin, reference compound] | – | – | – | – | – | – | – | – | – | – | – | – | – | – | – | – | significantly increased | – | – | significantly increased | IC50 (DU 145 cells [7]): 126.8 ± 1.18 µM; apoptosis induction (annexin V/PI), in words (PC-3 cells [4]; PC-3, 200 µM cisplatin, 48 h): prominent apoptosis; IC50 (PC-3 cells [8]): 230.9 ± 1.37 µM; IC50 (MRC-5 cells [9]): 237.3 ± 1.16 µM
